≈ marks a conversion by molar mass, not a printed value. Where two headings read alike, the source gives them in different places.
Columns and labels:
[1] = test system: Staphylococcus aureus NCTC 13373 (mecA-positive; methicillin-resistant); assay: In vitro antibacterial activity, MIC (UCL School of Pharmacy assay), MRSA; assay type: cell-based; settings: for MIC: Staphylococcus aureus
Procedure: (§1) Staphylococcus aureus NCTC 13373 (mecA-positive; methicillin-resistant, NCTC 13373) was supplied by the National Collection of Type Cultures (NCTC), Public Health England, United Kingdom. Other organisms, S. aureus ATCC 25923 (methicillin-susceptible) and Enterococcus faecalis ATCC 51299 (vanA-positive; vancomycin-resistant), were obtained from the American Type Culture Collection (ATCC) via LGC Standards, UK. A suspension of each organism was prepared from an overnight plate culture (tryptone soya agar) in phosphate-buffered saline (PBS) and adjusted to an absorbance reading at 600 nm of 0.1, which is approximately equivalent to 1 × 10^8 colony-forming units (CFU) per mL. The cultures were further diluted 1:100 in isosensitest broth (Oxoid, United Kingdom) before 100 μL was used to inoculate each well of a 96-well plate that contained diluted samples of the OSA series. Compounds were evaluated over a 2-fold dilution range from 32 to 0.03 μg/mL. Stocks of the samples were prepared in 100% DMSO at […] before being diluted in isosenstitest broth. The highest concentration of DMSO present was 2%, which has been previously shown not to inhibit the growth of the microorganisms (data not shown). […] Vancomycin was used as a quality control compound.

[2] = test system: S. aureus ATCC 25923 (methicillin-susceptible); assay: In vitro antibacterial activity, MIC (UCL), MSSA; assay type: cell-based, Staphylococcus aureus; settings: for MIC: Staphylococcus aureus
Procedure: as §1

[3] = UCL assay, read-out: MRSA MIC (ug/mL) (UCL)
[4] = UCL assay, read-out: MSSA MIC (ug/mL) (UCL)

**Q.** `CC(C)CN(c1ccc(F)cc1)c1c(-c2nccs2)nc2ccccn12` [compound 1010] was tested. Which “MRSA MIC” value [1] did it give?
**A.** > 32 µg/mL

**Q.** What about the “MSSA MIC” value [2] of the same compound?
**A.** > 32 µg/mL

**Q.** For `CC(C)CN(Cc1c(-c2ccccn2)nc2ccccn12)c1ccc(F)cc1` [OSA_001040], which MIC [1, 3] is on record?
**A.** 32 µg/mL (≈ 85.5 µM)

**Q.** And the MIC [2, 4]?
**A.** > 32 µg/mL

**Q.** What does the source list for `N#Cc1ccc(-c2c(-c3ccccn3)nc3ccccn23)cc1` [compound 1104]?
**A.** MRSA MIC [1]: > 32 µg/mL; MSSA MIC [2]: > 32 µg/mL

**Q.** Which MIC ([1]; read-out: MRSA MIC) does the source give for `CSc1ccc(-c2c(-c3ccccn3)nc3n2CCC3)cc1` [compound 824] here?
**A.** 4 µg/mL (≈ 13 µM)

**Q.** For `N#Cc1ccc(-c2nc(-c3ccccn3)c[nH]2)cc1` [OSA_001102], which MIC [1, 3] is on record?
**A.** > 32 µg/mL

**Q.** What about the MIC [2, 4] of the same compound?
**A.** > 32 µg/mL

**Q.** With `c1ccc(-c2nc3ccccn3c2-c2ccc3c(c2)OCO3)nc1` [compound 814] as the compound, how does the MIC ([1]; read-out: MRSA MIC) read?
**A.** 32 µg/mL (≈ 101 µM)

**Q.** For `c1ccc(-c2nc3n(c2-c2csc4ccccc24)CCC3)nc1` [compound 832], which MIC ([1]; read-out: MRSA MIC) is on record?
**A.** 8 µg/mL (≈ 25.2 µM)

**Q.** What does the source list for `Cc1nc2cc(-c3c(-c4ccccn4)nc4n3CCC4)ccc2s1` [compound 836]?
**A.** activity against MRSA, in words [1]: ineffective; MIC ([1]; read-out: MRSA MIC): 32 µg/mL (≈ 96.3 µM)

**Q.** For `Fc1ccc(Nc2c(-c3nccs3)nc3ccccn23)cc1` [compound 1008], which MIC ([1]; read-out: MRSA MIC) is on record?
**A.** > 32 µg/mL

**Q.** And the MIC ([2]; read-out: MSSA MIC)?
**A.** > 32 µg/mL

**Q.** `Fc1ccc(Nc2c(-c3ccc[nH]3)nc3ccccn23)cc1` [compound 1009] was tested. Which MIC ([1]; read-out: MRSA MIC) did it give?
**A.** > 32 µg/mL

**Q.** And the MIC ([2]; read-out: MSSA MIC)?
**A.** > 32 µg/mL

**Q.** Which MIC ([1]; UCL, read-out: MRSA MIC (UCL)) does the source give for `Cc1ccc(-c2c(-c3ccccn3)nc3cc(C(N)=O)ccn23)cc1` [OSA_001015] here?
**A.** > 32 µg/mL

**Q.** And the MIC ([2]; read-out: MSSA MIC (UCL))?
**A.** > 32 µg/mL

**Q.** Which “MRSA MIC” value [1] does the source give for `N#Cc1ccc(-c2nc(-c3ccccn3)c[nH]2)cc1` [compound 1102] here?
**A.** > 32 µg/mL

**Q.** What about the “MSSA MIC” value [2] of the same compound?
**A.** > 32 µg/mL

**Q.** For `CC(C)CN(c1ccc(F)cc1)c1c(-c2ccccn2)nc2ccc(S(C)(=O)=O)cn12` [OSA_001037], which MIC [1, 3] is on record?
**A.** > 32 µg/mL

**Q.** And the MIC [2, 4]?
**A.** > 32 µg/mL

**Q.** With `c1ccc(-c2nc3n(c2-c2csc4ccccc24)CCC3)nc1` [OSA_000832] as the compound, how does the MIC ([1]; UCL, read-out: MRSA MIC (UCL)) read?
**A.** 8 µg/mL (≈ 25.2 µM)

**Q.** Which MIC ([1]; UCL, read-out: MRSA MIC (UCL)) does the source give for `c1ccc(-c2nc3n(c2-c2ccc4cccnc4c2)CCC3)nc1` [OSA_000833] here?
**A.** > 32 µg/mL

**Q.** Which “MRSA MIC” value [1] does the source give for `c1cncc(-c2nc3n(c2-c2ccc4c(c2)OCO4)CCC3)c1` [compound 816] here?
**A.** > 32 µg/mL

**Q.** How did the MIC ([1]; read-out: MRSA MIC) turn out when `c1ccc(-c2nc3n(c2-c2ccc4c(c2)OCCO4)CCC3)nc1` [compound 819] was run?
**A.** 16 µg/mL (≈ 50.1 µM)

**Q.** How did the MIC ([1]; read-out: MRSA MIC) turn out when `CSc1cccc(-c2c(-c3ccccn3)nc3n2CCC3)c1` [compound 826] was run?
**A.** 4 µg/mL (≈ 13 µM)

**Q.** For `c1ccc(-c2nc3n(c2-c2ccc4c(c2)OCO4)CCS3)nc1` [compound 813], which “MRSA MIC” value [1] is on record?
**A.** 32 µg/mL

**Q.** Which MIC [2, 4] does the source give for `CC(C)CN(c1ccc(F)cc1)c1c(-c2ccccn2)nc2ncccn12` [OSA_001038] here?
**A.** 8 µg/mL (≈ 22.1 µM)

**Q.** Which MIC [1, 3] does the source give for `COc1ccc(-c2nc3ccccn3c2N(CC(C)C)c2ccc(F)cc2)nc1` [OSA_001034] here?
**A.** 8 µg/mL (≈ 20.5 µM)

**Q.** With `c1ccc(-c2nc3n(c2-c2ccc4ccsc4c2)CCC3)nc1` [compound 830] as the compound, how does the MIC ([1]; read-out: MRSA MIC) read?
**A.** 4 µg/mL (≈ 12.6 µM)

**Q.** `c1ccc(-c2nc3n(c2-c2ccc4sccc4c2)CCC3)cc1` [OSA_000834] was tested. Which MIC ([1]; UCL, read-out: MRSA MIC (UCL)) did it give?
**A.** > 32 µg/mL

**Q.** Which “MRSA MIC” value [1] does the source give for `c1ccc(-c2nc3n(c2-c2ccc4sccc4c2)CCC3)cc1` [compound 834] here?
**A.** > 32 µg/mL

**Q.** How did the “activity against MRSA, in words” value [1] turn out when `c1ccc(-c2nc3n(c2-c2ccc4scnc4c2)CCC3)nc1` [compound 835] was run?
**A.** ineffective

**Q.** What about the MIC ([1]; read-out: MRSA MIC) of the same compound?
**A.** 32 µg/mL (≈ 101 µM)

**Q.** With `COc1ccc(-c2c(-c3ccccn3)nc3n2CCC3)cc1` [compound 823] as the compound, how does the MIC ([1]; read-out: MRSA MIC) read?
**A.** 16 µg/mL (≈ 54.9 µM)

**Q.** Which “MRSA MIC” value [1] does the source give for `c1cc(-c2nc3n(c2-c2ccc4c(c2)OCO4)CCC3)ccn1` [compound 817] here?
**A.** > 32 µg/mL

**Q.** `c1ccc(-c2nc3ncccn3c2-c2ccc3c(c2)OCO3)nc1` [compound 815] was tested. Which “MRSA MIC” value [1] did it give?
**A.** > 32 µg/mL

**Q.** `COc1cccc(-c2c(-c3ccccn3)nc3n2CCC3)c1` [compound 825] was tested. Which MIC ([1]; read-out: MRSA MIC) did it give?
**A.** 16 µg/mL (≈ 54.9 µM)
